One experiment concerns pregnancy in rats. Kind of experiment: Early abortive action in rats after subcutaneous administration from the 5th to 7th day of pregnancy. Conditions: s.c., day 5-7 of pregnancy; for Complete Inhibition of Pregnancy (empty uteri) N#/N: nonpregnant females/paired females. Type of experiment: in vivo, rat. The source says: (§1) The methods for the in-vitro tests and the in-vivo tests with the compounds according to the invention can be found in EP 0 411 733 A2 and DE 43 32 283 A1: […]

The test system of another experiment is Glucocorticoid Receptor. Kind of experiment: Receptor bond: relative molar binding affinity to the glucocorticoid receptor. Conditions: Dexamethasone = 100%.
In a further experiment the test system is Progesterone Receptor. Kind of experiment: Receptor bond: relative molar binding affinity to the progesterone receptor. Conditions: Progesterone = 100%.
Text: as §1

For another experiment, the system named is tumor models. Conditions: in vivo; cited from earlier work.
The conditions of experiment [1]: cited from earlier work.

In the case of “4-[17β-Hydroxy-17α-(1,1,1-trifluoroethyloxymethyl)-3-oxoestra-4,9-dien-11β-yl]-benzaldehyde-(1E)-oxime [Example 6]”, the “Complete Inhibition of Pregnancy (empty uteri)” value was 0 with pregnancy in rats (0.1 mg/animal/day), 100 with pregnancy in rats (0.3 mg/animal/day) and 100 in the experiment on pregnancy in rats (1 mg/animal/day). The “Complete Inhibition of Pregnancy (empty uteri) N#/N” value in the experiment on pregnancy in rats (0.1 mg/animal/day) is 0/4; in the experiment on pregnancy in rats (0.3 mg/animal/day) it was 4/4; in the experiment on pregnancy in rats (1 mg/animal/day), 4/4.

Take `CC12CC(c3ccc(C=NO)cc3)C3=C4CCC(=O)C=C4CCC3C1CCC2(O)C(F)(F)F` (stereo not drawn) [Compound No. 2, 4-[17β-Hydroxy-17α-(1,1,1-trifluoromethyl)-3-oxoestra-4,9-dien-11β-yl]benzaldehyde-1(Z)-oxime]: in the experiment with Glucocorticoid Receptor, the “Relative Molar Binding-affinity RBA (%) to the Glucocorticoid Receptor” value is listed as 113%. Also, the “Relative Molar Binding-affinity RBA (%) to the Progesterone Receptor” value in the experiment with Progesterone Receptor is listed as 123%.

Turning to `CC12CC(c3ccc(C=NO)cc3)C3=C4CCC(=O)C=C4CCC3C1CCC2(O)C(F)(F)F` (stereo not drawn) [Example 1, 4-[17β-Hydroxy-17α-(trifluoromethyl)-3-oxoestra-4,9-dien-11β-yl]benzaldehyde-(1E)-oxime], in the experiment on Glucocorticoid Receptor, the “Relative Molar Binding-affinity RBA (%) to the Glucocorticoid Receptor” value turned out to be 163%. Also, the “Relative Molar Binding-affinity RBA (%) to the Progesterone Receptor” value in the experiment with Progesterone Receptor came to 272%. Also, the “Complete Inhibition of Pregnancy (empty uteri)” value with pregnancy in rats (0.03 mg/animal/day) is recorded as 0; in the experiment on pregnancy in rats (0.1 mg/animal/day), 75; in the experiment with pregnancy in rats (0.3 mg/animal/day) it was 100; with pregnancy in rats (1 mg/animal/day), 100. For the same molecule, the “Complete Inhibition of Pregnancy (empty uteri) N#/N” value in the experiment on pregnancy in rats (0.03 mg/animal/day) is given as 0/6; with pregnancy in rats (0.1 mg/animal/day), 1/4; in the experiment with pregnancy in rats (0.3 mg/animal/day), 4/4; with pregnancy in rats (1 mg/animal/day), 4/4.

As for `CC12CC(c3ccc(C=NO)cc3)C3=C4CCC(=O)C=C4CCC3C1CCC2(O)C(F)(F)C(F)(F)F` (stereo not drawn) [Example 2, 4-[17β-Hydroxy-17α-(1,1,2,2,2-pentafluoroethyl)-3-oxoestra-4,9-dien-11β-yl]-benzaldehyde-(1E)-oxime], the “Relative Molar Binding-affinity RBA (%) to the Glucocorticoid Receptor” value with Glucocorticoid Receptor is 10%. Also, the “Relative Molar Binding-affinity RBA (%) to the Progesterone Receptor” value with Progesterone Receptor was found to be 23%. Besides, in the experiment on pregnancy in rats (1 mg/animal/day), the “Complete Inhibition of Pregnancy (empty uteri)” value was 100 and the “Complete Inhibition of Pregnancy (empty uteri) N#/N” value is 5/5.

With `CCNC(=O)ON=Cc1ccc(C2CC3(C)C(CCC3(O)C(F)(F)C(F)(F)F)C3CCC4=CC(=O)CCC4=C23)cc1` (stereo not drawn) [Example 3, 4-[17β-Hydroxy-17α-(1,1,2,2,2-pentafluoroethyl)-3-oxoestra-4,9-dien-11β-yl]-benzaldehyd-1-one-(1E)-{O-(ethylamino)carbonyl-oxime], in the experiment on Glucocorticoid Receptor, the “Relative Molar Binding-affinity RBA (%) to the Glucocorticoid Receptor” value turned out to be 84%. Besides, the “Relative Molar Binding-affinity RBA (%) to the Progesterone Receptor” value in the experiment with Progesterone Receptor is 230%. In addition, in the experiment with pregnancy in rats (1 mg/animal/day), the “Complete Inhibition of Pregnancy (empty uteri)” value is given as 100 and the “Complete Inhibition of Pregnancy (empty uteri) N#/N” value is listed as 4/4.

`COC1(C(F)(F)C(F)(F)F)CCC2C3CCC4=CC(=O)CCC4=C3C(c3ccc(C=NO)cc3)CC21C` (stereo not drawn) [Example 4, 4-[17β-Methoxy-17α-(1,1,2,2,2-pentafluoroethyl)-3-oxoestra-4,9-dien-11β-yl]-benzaldehyde-(1E)-oxime]: in the experiment on pregnancy in rats (1 mg/animal/day), the “Complete Inhibition of Pregnancy (empty uteri)” value is listed as 50 and the “Complete Inhibition of Pregnancy (empty uteri) N#/N” value was 2/4.

Consider `CN(C)c1ccc([C@H]2C[C@]3(C)[C@@H](CC[C@]3(O)CCCO)[C@@H]3CCC4=CC(=O)CCC4=C32)cc1` [Onapristone, reference compound], for which the “Relative Molar Binding-affinity RBA (%) to the Glucocorticoid Receptor” value with Glucocorticoid Receptor is listed as 39%. The “Relative Molar Binding-affinity RBA (%) to the Progesterone Receptor” value in the experiment with Progesterone Receptor amounted to 22%.

Turning to `CC#C[C@]1(O)CC[C@H]2[C@@H]3CCC4=CC(=O)CCC4=C3[C@@H](c3ccc(N(C)C)cc3)C[C@@]21C` [RU 486, 11β-(4-Dimethylaminophenyl)-17β-hydroxy-17α-propinyl-estra-4,9-dien-3-one, reference compound], the results for the “Complete Inhibition of Pregnancy (empty uteri)” value with pregnancy in rats (0.3 mg/animal/day), in the experiment with pregnancy in rats (1 mg/animal/day) and with pregnancy in rats (3 mg/animal/day) were 0, 20 and 100, respectively. Also, the entries for the “Complete Inhibition of Pregnancy (empty uteri) N#/N” value in the experiment on pregnancy in rats (0.3 mg/animal/day), in the experiment with pregnancy in rats (1 mg/animal/day) and in the experiment on pregnancy in rats (3 mg/animal/day) were 0/5, 1/5 and 5/5, respectively.

For `CC(=O)c1ccc([C@H]2C[C@@]3(C)[C@@H](CC[C@@]3(O)C(F)(F)C(F)(F)F)[C@@H]3CCC4=CC(=O)CCC4=C32)cc1` [ZK 230 211, 11β-(4-Acetylphenyl)-17β-hydroxy-17α-(1,1,2,2,2-pentafluoroethyl)-estra-4,9-dien-3-one, reference compound], in the experiment with tumor models, the “Antiproliferative activity in the tumor models (in words)” value is given as “antiproliferative activity”. In experiment [1], the “Receptor selectivity (in words)” value is on record as “high receptor selectivity”. Besides, the “Complete Inhibition of Pregnancy (empty uteri)” value in the experiment with pregnancy in rats (0.3 mg/animal/day) was 0; with pregnancy in rats (1 mg/animal/day), 75; with pregnancy in rats (3 mg/animal/day), 100. Also, the figures for the “Complete Inhibition of Pregnancy (empty uteri) N#/N” value with pregnancy in rats (0.3 mg/animal/day), in the experiment on pregnancy in rats (1 mg/animal/day) and with pregnancy in rats (3 mg/animal/day) were 0/6, 3/4 and 4/4, respectively.

Turning to `CCNC(=O)ON=Cc1ccc(C2CC3(C)C(CCC3(O)C(F)(F)F)C3CCC4=CC(=O)CCC4=C23)cc1` (stereo not drawn) [compound 3, 4-[17β-Hydroxy-17α-(1,1,1-trifluoromethyl)-3-oxoestra-4,9-dien-11β-yl]benzaldehyde-1(E)-[O-(ethylamino)carbonyl]oxime], the “Relative Molar Binding-affinity RBA (%) to the Glucocorticoid Receptor” value with Glucocorticoid Receptor is given as 187%. Further, the “Relative Molar Binding-affinity RBA (%) to the Progesterone Receptor” value in the experiment with Progesterone Receptor amounted to 98%.

Turning to `CC(=O)ON=Cc1ccc(C2CC3(C)C(CCC3(O)C(F)(F)C(F)(F)F)C3CCC4=CC(=O)CCC4=C23)cc1` (stereo not drawn) [compound 5, 4-[17β-Hydroxy-17α-(1,1,2,2,2-pentafluoroethyl)-3-oxoestra-4,9-dien-11β-yl]benzaldehyde-1(E)-O-acetyloxime], the “Relative Molar Binding-affinity RBA (%) to the Glucocorticoid Receptor” value with Glucocorticoid Receptor is listed as 10%. In addition, the “Relative Molar Binding-affinity RBA (%) to the Progesterone Receptor” value with Progesterone Receptor was 0.5%.

The values above are taken from US6825182B2, “17α-fluoroalkyl-11β-benzaldoxime steroids, process for their production, pharmaceutical preparations that contain these steroids as well as their use for the production of pharmaceutical agents” (Schering AG, priority 2002, dated 2004).
